The results in this text go back to patent US12509444B2, “Compounds and methods for CD73 modulation and indications therefor” (Plexxikon Inc., priority 2019, dated 2025).

Molecules are shown by their SMILES. pIC50: −log10 of the molar value.

Assay [1] addresses T1, Human CD73 (amino acid residues 27-549) (Homo sapiens, UniProt P21589).
T1 construct: Human CD73 (amino acid residues 27-549); His tag (N); made in house; host or cells: E. coli
T1 sequence (P21589 27-549): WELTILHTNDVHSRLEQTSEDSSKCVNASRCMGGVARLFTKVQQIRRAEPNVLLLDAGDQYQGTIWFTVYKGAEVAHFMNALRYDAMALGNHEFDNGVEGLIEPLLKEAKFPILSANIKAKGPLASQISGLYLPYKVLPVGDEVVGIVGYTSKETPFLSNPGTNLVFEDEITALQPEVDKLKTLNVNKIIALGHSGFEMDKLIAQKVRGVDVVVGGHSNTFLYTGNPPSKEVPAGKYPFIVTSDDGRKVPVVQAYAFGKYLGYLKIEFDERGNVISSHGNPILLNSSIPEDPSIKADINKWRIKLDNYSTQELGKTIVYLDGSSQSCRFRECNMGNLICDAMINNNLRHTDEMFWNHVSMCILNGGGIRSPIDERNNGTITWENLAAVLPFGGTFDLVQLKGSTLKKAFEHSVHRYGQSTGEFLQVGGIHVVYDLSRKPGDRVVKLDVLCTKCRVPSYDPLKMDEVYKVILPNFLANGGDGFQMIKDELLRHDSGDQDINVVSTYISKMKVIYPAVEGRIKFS
As to the kind of experiment: CD73 enzymatic assay (luciferase-based indirect assay, CellTiter-Glo). The conditions noted are these: 0.4 nM CD73, 150 μM AMP, 1 hour at room temperature. Type of assay: biochemical. The essentials:
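Residual AMP inhibits luciferase, so luminescence reports CD73 turnover; read with CellTiter-Glo 2.0 plus 1 μM final ATP, 30 min. Reaction used 0.4 nM N-His CD73 (27-549, E. coli), 150 μM AMP, HEPES pH 7.4 with Tween 20, 1 h at room temperature. IC50 fitted by nonlinear regression.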
(In general: Cellular ATP, detected with luciferase, serves as a proxy for viable cell number.)

The target of a further assay is T2, human CD73 (Homo sapiens, UniProt P21589).
T2 construct: expressed in transfected cells
T2 sequence (P21589 27-549): T1 sequence (P21589 27-549)
As to the kind of experiment: Inhibitor activity against CD73 in cell based assay (CD73 expressing CHO-K1 cells). The conditions noted are these: CHO-K1 cells expressing human CD73, 150 μM AMP, 4 hours of incubation; read-out: CHO-K1 CELL VARIANT: CD73 IC50. An outline of the steps: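 Residual supernatant AMP was quantified via CellTiter-Glo luminescence (1 μM ATP added, 30 min, room temperature) after a 4 h exposure of human CD73-expressing CHO-K1 cells to 150 μM AMP plus compound, top final 10 μM, 8 points. IC50 came from nonlinear regression of percent inhibition.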

As for `N#Cc1c(N2CC[C@@H](OC(=O)NC3CCCC3)C2)cnn(CCO)c1=O` [P-0496, (R)-1-(5-cyano-1-(2-hydroxyethyl)-6-oxo-1,6-dihydropyridazin-4-yl)pyrrolidin-3-yl cyclopentylcarbamate], the pIC50 (in assay [1]; at human CD73) was 5.00 to 9.00 in each case.

Turning to `N#Cc1c(N2CC[C@@H](OC(=O)NC3CCC(F)(F)CC3)C2)cnn(CCO)c1=O` [P-0497, (R)-1-(5-cyano-1-(2-hydroxyethyl)-6-oxo-1,6-dihydropyridazin-4-yl)pyrrolidin-3-yl (4,4-difluorocyclohexyl)carbamate], the pIC50 (in assay [1]; on human CD73) was 5.00 to 9.00 each time.

In the case of `Cc1onc(C(=O)N2CCC(NC(=O)O[C@@H]3CCN(c4cn[nH]c(=O)c4Cl)C3)CC2)c1C` [P-0498, (R)-1-(5-chloro-6-oxo-1,6-dihydropyridazin-4-yl)pyrrolidin-3-yl (1-(4,5-dimethylisoxazole-3-carbonyl)piperidin-4-yl)carbamate], the pIC50 (in assay [1]; on human CD73) was 5.00 to 9.00 in each case.

As for `Cc1cc(C(=O)N2CCC(NC(=O)O[C@@H]3CCN(c4cn[nH]c(=O)c4Cl)C3)CC2)no1` [P-0499, (R)-1-(5-chloro-6-oxo-1,6-dihydropyridazin-4-yl)pyrrolidin-3-yl (1-(5-methylisoxazole-3-carbonyl)piperidin-4-yl)carbamate], the pIC50 (in assay [1]; on human CD73) was 5.00 to 9.00 throughout.

With `Cc1nc(C)c(C(=O)N2CCC(NC(=O)O[C@@H]3CCN(c4cn[nH]c(=O)c4Cl)C3)CC2)o1` [P-0500, (R)-1-(5-chloro-6-oxo-1,6-dihydropyridazin-4-yl)pyrrolidin-3-yl (1-(2,4-dimethyloxazole-5-carbonyl)piperidin-4-yl)carbamate], the pIC50 (in assay [1]; at human CD73) was 5.00 to 9.00 in each case.

`Cc1nc(C(=O)N2CCC(NC(=O)O[C@@H]3CCN(c4cn[nH]c(=O)c4Cl)C3)CC2)cs1` [P-0501, (R)-1-(5-chloro-6-oxo-1,6-dihydropyridazin-4-yl)pyrrolidin-3-yl (1-(2-methylthiazole-4-carbonyl)piperidin-4-yl)carbamate]: the pIC50 (in assay [1]; on human CD73) was 5.00 to 9.00 in each case.

On to `Cc1occc1C(=O)N1CCC(NC(=O)O[C@@H]2CCN(c3cn[nH]c(=O)c3Cl)C2)CC1` [P-0502, (R)-1-(5-chloro-6-oxo-1,6-dihydropyridazin-4-yl)pyrrolidin-3-yl (1-(2-methylfuran-3-carbonyl)piperidin-4-yl)carbamate], for which the negative logarithm of the IC50 (pIC50) (in assay [1]; on human CD73) was 5.00 to 9.00 in each case.

Regarding `Cc1ncoc1C(=O)N1CCC(NC(=O)O[C@@H]2CCN(c3cn[nH]c(=O)c3Cl)C2)CC1` [P-0503, (R)-1-(5-chloro-6-oxo-1,6-dihydropyridazin-4-yl)pyrrolidin-3-yl (1-(4-methyloxazole-5-carbonyl)piperidin-4-yl)carbamate], the negative-log IC50 (pIC50) (in assay [1]; on human CD73) was 5.00 to 9.00 in each case.

`Cc1noc(C)c1C(=O)N1CCC(NC(=O)O[C@@H]2CCN(c3cn[nH]c(=O)c3Cl)C2)CC1` [P-0504, (R)-1-(5-chloro-6-oxo-1,6-dihydropyridazin-4-yl)pyrrolidin-3-yl (1-(3,5-dimethylisoxazole-4-carbonyl)piperidin-4-yl)carbamate]: the pIC50 (in assay [1]; at human CD73) was 5.00 to 9.00 in each case.

For `Cc1nonc1C(=O)N1CCC(NC(=O)O[C@@H]2CCN(c3cn[nH]c(=O)c3Cl)C2)CC1` [P-0505, (R)-1-(5-chloro-6-oxo-1,6-dihydropyridazin-4-yl)pyrrolidin-3-yl (1-(4-methyl-1,2,5-oxadiazole-3-carbonyl)piperidin-4-yl)carbamate], the pIC50 (in assay [1]; on human CD73) was 5.00 to 9.00 each time.

For `O=C(NC1CCCC(F)(F)C1)O[C@H]1CN(c2cn[nH]c(=O)c2Cl)C[C@@H]1F` (stereo partly drawn) [P-0506, (3S,4S)-1-(5-chloro-6-oxo-1,6-dihydropyridazin-4-yl)-4-fluoropyrrolidin-3-yl (3,3-difluorocyclohexyl)carbamate], the pIC50 (in assay [1]; at human CD73) was 5.00 to 9.00 throughout.

As usually defined, the pIC50 is the negative decadic logarithm of the IC50, by convention in mol/L.
